Source: US20260103471A1, “CYCLIC UREA THIAZOLYL COMPOUNDS FOR TREATMENT OF HSV” (Assembly Biosciences, Inc., priority 2022, published 2026)
Where two headings read alike, the source gives them in different places.

Columns and labels:
HSV-1 = HSV-1 Antiviral Assay (Vero cells, cell viability); format: cell-based; details: Human alphaherpesvirus 1, 96 h, Vero cells, read-out: HSV-1 EC50
Outline: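 Vero cells (2.5×10^3/well) received 8-point 3-fold compound dilutions in 2% FBS medium (0.5% DMSO), then 80 TCID50 HSV-1. After 4 days at 37 °C, cell viability was measured by CellTiter-Glo luminescence.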

HSV-2 G strain = experiment: HSV-2 Antiviral Assay (Vero cells, cell viability); format: cell-based; details: Human alphaherpesvirus 2, Vero, 120 h, Vero cells, 5 days
Outline: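 Antiviral readout is survival of infected Vero cells: after 5 days at 37 °C with 160 TCID50 HSV-2 G strain plus serially diluted compound (8 points, 3-fold, 0.5% DMSO), WST-8 was added for 3 h and absorbance measured at 460/620 nm. Cells seeded at 1.0×10^4 per well.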

HSV = details: long-term suppressive treatment; cited from earlier work
[1] = 80 TCID50 HSV-1, 4 days, cell viability
[2] = 160 TCID50 HSV-2 G strain, cell viability

| SMILES | EC50 (HSV-1; 4 days) | EC50 (HSV-2 G strain) | EC50 (HSV-1; [1]) | EC50 (HSV-2 G strain; [2]) | reduce transmission risk (HSV) |
| --- | --- | --- | --- | --- | --- |
| Cc1nc(N2CCN(c3ccc(-c4cc(F)ccc4F)cc3)C2=O)sc1S(N)(=O)=O [Example 104] | 1.74 µM | > 2 µM |  |  |  |
| Cc1nc(N2C[C@H](C(C)(C)O)CN(c3ccc(-c4cc(F)ccc4F)cc3)C2=O)sc1S(N)(=O)=O (single isomer, unassigned) [Compound 343] |  |  | < 0.1 µM | < 0.1 µM |  |
| Cc1nc(N2C[C@H](C)CN(c3ccc(-c4ccccc4Cl)cc3)C2=O)sc1S(N)(=O)=O (single isomer, unassigned) [Compound 322] |  |  | < 0.1 µM | < 0.1 µM |  |
| Cc1nc(N2CCCN([C@@H](C)c3cccc(-c4cc(F)ccc4F)c3)C2=O)sc1S(N)(=O)=O (single isomer, unassigned) [Compound 175] |  |  | 1 to 5 µM | 1 to 5 µM |  |
| Cc1nc(N2CCCN(c3ccc(-c4cc(F)ccc4F)cc3)C2=O)sc1S(C)(=O)=O [Compound 161] |  |  | < 0.1 µM | < 0.1 µM |  |
| Cc1nc(N2CCCN(c3ccc(-c4nccc5ccccc45)cc3)C2=O)sc1S(N)(=O)=O [Compound 86] |  |  | 0.1 to 1 µM | 0.1 to 1 µM |  |
| Cc1nc(N2CCCN(c3ccc(-c4cccc5c4CC(=O)N5C)cc3)C2=O)sc1S(N)(=O)=O [Compound 77] |  |  | 0.1 to 1 µM | 0.1 to 1 µM |  |
| Cc1nc(N2CCCN(c3ccc(-c4cccc(C(F)F)c4)cc3)C2=O)sc1S(N)(=O)=O [Compound 14] |  |  | < 0.1 µM | < 0.1 µM |  |
| CNS(=O)(=O)c1sc(N2CCCN(c3ccc(-c4cccc(N)n4)cc3)C2=O)nc1C [Compound 123] |  |  | < 0.1 µM | < 0.1 µM |  |
| Cc1nc(N2CCCN(c3ccc(-c4cc(F)ccc4F)cc3)C2=O)sc1S(=O)(=O)NCCCO [Compound 417] |  |  | < 0.1 µM | < 0.1 µM |  |
| Cc1nc(N2CCCN(c3ccc(-c4ccncc4)cc3)C2=O)sc1S(N)(=O)=O [Compound 3] |  |  | 0.1 to 1 µM | 0.1 to 1 µM |  |
| Cc1nc(N2CCCN(c3ccc(-c4cccc5c4cnn5C(C)C)cc3)C2=O)sc1S(N)(=O)=O [Compound 56] |  |  | 0.1 to 1 µM | 0.1 to 1 µM |  |
| Cc1nc(N2CCCN([C@H](C)c3cccc(-c4ccccc4F)c3)C2=O)sc1S(N)(=O)=O (single isomer, unassigned) [Compound 178] |  |  | 1 to 5 µM | 1 to 5 µM |  |
| Cc1nc(N2CCCN(c3ccc(-c4cccc(F)c4)cc3)C2=O)sc1S(N)(=O)=O [Compound 13] |  |  | < 0.1 µM | < 0.1 µM |  |
| Cc1nc(N2C[C@H](C#N)CN(c3ccc(-c4cc(F)ccc4F)cc3)C2=O)sc1S(N)(=O)=O (single isomer, unassigned) [Compound 361] |  |  | < 0.1 µM | < 0.1 µM |  |
| Cc1nc(N2CCCN(c3ccc(-c4ccccc4F)c(F)c3)C2=O)sc1S(=O)(=O)NC1CC1 [Compound 133] |  |  | < 0.1 µM | < 0.1 µM |  |
| Cc1nc(N2CC3(CC3)CN(c3ccc(-c4cc(F)ccc4F)cc3)C2=O)sc1S(C)(=N)=O (stereo not shown) [Compound 155] |  |  | < 0.1 µM | < 0.1 µM |  |
| Cc1nc(N2CCCN(c3ccc(-c4cc(F)ccc4F)cc3)C2=O)sc1[S@@](C)(=N)=O (single isomer, unassigned) [Compound 140] |  |  | 0.1 to 1 µM | 0.1 to 1 µM |  |
| Cc1nc(N2CCCN(c3ccc(-c4cc(F)cc(F)c4F)cc3)C2=O)sc1S(N)(=O)=O [Compound 7] |  |  | < 0.1 µM | < 0.1 µM |  |
| Cc1nc(N2CCCCN(c3ccc(-c4ccccc4F)cc3)C2=O)sc1S(N)(=O)=O [Compound 102] |  |  | < 0.1 µM | < 0.1 µM |  |
| Cc1nc(N2CCCN(C(C)c3cccc(-c4cc(F)ccc4F)c3)C2=O)sc1S(N)(=O)=O (stereo not shown) [Compound 174, 2-(3-(1-(2′,5′-Difluoro-[1,1′-biphenyl]-3-yl)ethyl)-2-oxotetrahydropyrimidin-1(2H)-yl)-4-methylthiazole-5-sulfonamide] |  |  | 1 to 5 µM | 1 to 5 µM |  |
| Cc1nc(N2CCCN(c3ccc(-c4nc5ccccc5s4)cc3)C2=O)sc1S(N)(=O)=O [Compound 88] |  |  | 0.1 to 1 µM | 1 to 5 µM |  |
| Cc1nc(N2CCCN(c3ccc(-c4ccccn4)c(F)c3)C2=O)sc1S(N)(=O)=O [Compound 97] |  |  | < 0.1 µM | < 0.1 µM |  |

| SMILES | EC50 (HSV-1; 4 days) | EC50 (HSV-2 G strain) | EC50 (HSV-1; [1]) | EC50 (HSV-2 G strain; [2]) | reduce transmission risk (HSV) |
| --- | --- | --- | --- | --- | --- |
| Cc1nc(N2CCCN(c3ccc(-c4cccnc4)cc3)C2=O)sc1S(N)(=O)=O [Compound 2] |  |  | 0.1 to 1 µM | 0.1 to 1 µM |  |
| Cc1csc(-c2ccc(N3CCCN(c4nc(C)c(S(N)(=O)=O)s4)C3=O)cc2)n1 [Compound 43] |  |  | < 0.1 µM | < 0.1 µM |  |
| CNS(=O)(=O)c1sc(N2CCCN(c3ccc(-c4cc(F)ccc4F)cc3)C2=O)nc1C [Compound 116, 2-(3-(2′,5′-Difluoro-[1,1′-biphenyl]-4-yl)-2-oxotetrahydropyrimidin-1(2H)-yl)-N,4-dimethylthiazole-5-sulfonamide] |  |  | < 0.1 µM | < 0.1 µM |  |
| Cc1nc(N2CCCN(c3ccc(-c4cc(F)ccc4C#N)cc3)C2=O)sc1S(N)(=O)=O [Compound 24] |  |  | < 0.1 µM | < 0.1 µM |  |
| Cc1nc(N2CCCN(c3ccc(-c4cc(F)ccc4F)cc3)C2=O)sc1[S@](C)(=N)=O (single isomer, unassigned) [Compound 141] |  |  | < 0.1 µM | < 0.1 µM |  |
| NS(=O)(=O)c1sc(N2CCCN(c3ccc(-c4cc(F)ccc4F)cc3)C2=O)nc1Cl [Compound 171] |  |  | < 0.1 µM | < 0.1 µM |  |
| COc1ccc(F)c(-c2ccc(N3CCCN(c4nc(C)c(S(N)(=O)=O)s4)C3=O)cc2)c1 [Compound 26] |  |  | < 0.1 µM | < 0.1 µM |  |
| Cc1nc(N2CCCN(c3ccc(-c4ccccc4F)cc3)C2=O)sc1S(N)(=O)=O [Compound 8] |  |  | < 0.1 µM | < 0.1 µM |  |
| Cc1nc(N2CCCN(c3ccc(-c4cccc5nn(C(C)C)cc45)cc3)C2=O)sc1S(N)(=O)=O [Compound 59] |  |  | 1 to 5 µM | 1 to 5 µM |  |
| Cc1nc(N2CCCN(c3ccc(-c4ccccn4)cc3)C2=O)sc1S(=O)(=O)NC1CC1 [Compound 119] |  |  | < 0.1 µM | < 0.1 µM |  |
| Cc1nc(N2CCCN(c3ccc(-c4cc(F)cc5nnsc45)cc3)C2=O)sc1S(N)(=O)=O [Compound 243] |  |  | < 0.1 µM | < 0.1 µM |  |
| C#Cc1ccc(F)c(-c2ccc(N3CCCN(c4nc(C)c(S(N)(=O)=O)s4)C3=O)cc2)c1 [Compound 17, 2-(3-(5′-Ethynyl-2′-fluoro-[1,1′-biphenyl]-4-yl)-2-oxotetrahydropyrimidin-1(2H)-yl)-4-methylthiazole-5-sulfonamide] |  |  | < 0.1 µM | < 0.1 µM |  |
| Cc1nc(N2CCCN(c3ccc(-c4cccc5c4cnn5CC(C)(C)O)cc3)C2=O)sc1S(N)(=O)=O [Compound 60] |  |  | 1 to 5 µM | 1 to 5 µM |  |
| Cc1nc(N2CC(C)(C)CN(c3ccc(-c4ccccc4F)cc3)C2=O)sc1S(N)(=O)=O [Compound 105] |  |  | < 0.1 µM | < 0.1 µM |  |
| Cc1nc(N2CCCN(c3ccc(-c4ccc5c(cnn5C)c4)cc3)C2=O)sc1S(N)(=O)=O [Compound 52] |  |  | 1 to 5 µM | 1 to 5 µM |  |
| Cc1nc(N2CC3(COC3)CN(c3ccc(-c4cc(F)ccc4F)cc3)C2=O)sc1S(N)(=O)=O [Compound 339, 2-(8-(2′,5′-difluoro-[1,1′-biphenyl]-4-yl)-7-oxo-2-oxa-6,8-diazaspiro[3.5]nonan-6-yl)-4-methylthiazole-5-sulfonamide] |  |  | < 0.1 µM | < 0.1 µM |  |
| Cc1nc(N2CCCCN(c3ccc(-c4ccccn4)cc3)C2=O)sc1S(N)(=O)=O [Compound 103] |  |  | < 0.1 µM | < 0.1 µM |  |
| Cc1nc(N2CCCN(c3ccc(-c4cccc5[nH]cnc45)cc3)C2=O)sc1S(N)(=O)=O [Compound 74] |  |  | 0.1 to 1 µM | 0.1 to 1 µM |  |
| Cc1nc(N2C[C@@H](C)CN(c3ccc(-c4ccccc4Cl)cc3)C2=O)sc1S(N)(=O)=O (single isomer, unassigned) [Compound 323] |  |  | < 0.1 µM | < 0.1 µM |  |
| CNS(=O)(=O)c1sc(N2CCCN(c3ccc(-c4nccs4)cc3)C2=O)nc1C [Compound 126] |  |  | < 0.1 µM | < 0.1 µM |  |
| CC(C)[C@H](N)C(=O)OCCOCn1cnc2c(=O)[nH]c(N)nc21 [valacyclovir] |  |  |  |  | 46% |
| COc1ccccc1-c1ccc(N2CCCN(c3nc(C)c(S(N)(=O)=O)s3)C2=O)cc1 [Compound 10] |  |  | < 0.1 µM | < 0.1 µM |  |
| Cc1nc(N2CCCN(c3ccc(-c4ccc5ncn(C)c5c4)cc3)C2=O)sc1S(N)(=O)=O [Compound 75] |  |  | 1 to 5 µM | 1 to 5 µM |  |
